# In the supplement of paper PMC10307832:
# Legend:
# Assay in all cases: relative viability (nuclei count vs DMSO), 5 days (fraction); higher = more cells survive
# [1] = system: NCI-H1793
# Summary of the method: (§1)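 Nuclei were stained with Hoechst during a one-step fixation (final 0.05% Triton X-100, 1% formaldehyde, 1 ug/ml Hoechst) carried out 5 days after dosing, then counted on 4× images. The cells, lung cancer lines in 1536-well plates, had been dosed by pin tool the day after seeding with one drug alone or a fixed anchor-drug dose plus five library-drug doses (not always all listed) in √10 steps. Relative viability is the nuclei count in treated wells divided by that in vehicle wells, and each value is the median of duplicate plates.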
# [2] = system: NCI-H2126
# Summary of the method: as §1
# [3] = system: NCI-H727
# Summary of the method: as §1
# [4] = system: NCI-H647
# Summary of the method: as §1
# [5] = system: NCI-H1993
# Summary of the method: as §1
# [6] = system: NCI-H520
# Summary of the method: as §1
# [7] = system: NCI-H2009
# Summary of the method: as §1
# [8] = system: SW 1573
# Summary of the method: as §1
# [9] = system: PC-14
# Summary of the method: as §1
# [10] = system: ABC-1
# Summary of the method: as §1
# [11] = system: NCI-H1666
# Summary of the method: as §1
smiles,measurement,setting,value
O=c1[nH]c2ccccc2n1C1CCN(CCCC(c2ccc(F)cc2)c2ccc(F)cc2)CC1 [Pimozide] + C[C@]1(O)C[C@@H](c2nc(-c3ccc4ccc(-c5ccccc5)nc4c3)c3c(N)nccn32)C1 [Linsitinib] (partner 1 µM),relative viability,[1]; first compound 0.08 µM,0.871
same,relative viability,[1]; first compound 0.253 µM,0.612
same,relative viability,[1]; first compound 0.8 µM,0.861
same,relative viability,[1]; first compound 2.53 µM,0.88
same,relative viability,[1]; first compound 8 µM,0.831
same,relative viability,[2]; first compound 0.08 µM,0.747
same,relative viability,[2]; first compound 0.253 µM,0.662
same,relative viability,[2]; first compound 0.8 µM,0.713
same,relative viability,[2]; first compound 2.53 µM,0.74
same,relative viability,[2]; first compound 8 µM,0.774
same,relative viability,[3]; first compound 0.08 µM,0.285
same,relative viability,[3]; first compound 0.253 µM,0.337
same,relative viability,[3]; first compound 0.8 µM,0.307
same,relative viability,[3]; first compound 2.53 µM,0.281
same,relative viability,[3]; first compound 8 µM,0.526
same,relative viability,[4]; first compound 0.08 µM,1.16
same,relative viability,[4]; first compound 0.253 µM,1.06
same,relative viability,[4]; first compound 0.8 µM,1.1
same,relative viability,[4]; first compound 2.53 µM,1.17
same,relative viability,[4]; first compound 8 µM,0.779
same,relative viability,[5]; first compound 0.08 µM,0.662
same,relative viability,[5]; first compound 0.253 µM,0.659
same,relative viability,[5]; first compound 0.8 µM,0.571
same,relative viability,[5]; first compound 2.53 µM,0.725
same,relative viability,[5]; first compound 8 µM,0.755
same,relative viability,[6]; first compound 0.08 µM,0.894
same,relative viability,[6]; first compound 0.253 µM,1
same,relative viability,[6]; first compound 0.8 µM,1.01
same,relative viability,[6]; first compound 2.53 µM,0.995
same,relative viability,[6]; first compound 8 µM,0.937
same,relative viability,[7]; first compound 0.08 µM,1.19
same,relative viability,[7]; first compound 0.253 µM,1.21
same,relative viability,[7]; first compound 0.8 µM,1.2
same,relative viability,[7]; first compound 2.53 µM,1.2
same,relative viability,[7]; first compound 8 µM,1.01
same,relative viability,[8]; first compound 0.08 µM,0.744
same,relative viability,[8]; first compound 0.253 µM,0.778
same,relative viability,[8]; first compound 0.8 µM,0.75
same,relative viability,[8]; first compound 2.53 µM,0.721
same,relative viability,[8]; first compound 8 µM,0.853
same,relative viability,[9]; first compound 0.253 µM,0.94
same,relative viability,[9]; first compound 0.8 µM,0.99
same,relative viability,[9]; first compound 2.53 µM,0.938
same,relative viability,[9]; first compound 8 µM,0.91
same,relative viability,[10]; first compound 0.08 µM,0.825
same,relative viability,[10]; first compound 0.253 µM,0.747
same,relative viability,[10]; first compound 0.8 µM,0.788
same,relative viability,[10]; first compound 2.53 µM,0.629
same,relative viability,[10]; first compound 8 µM,0.491
same,relative viability,[11]; first compound 0.08 µM,0.786
same,relative viability,[11]; first compound 0.253 µM,0.723
same,relative viability,[11]; first compound 0.8 µM,0.711
same,relative viability,[11]; first compound 2.53 µM,0.73
same,relative viability,[11]; first compound 8 µM,0.635
